Reference: paper PMC3391414 (Journal of Agricultural and Food Chemistry, 2011)
Where two headings read alike, the source gives them in different places.

Legend:
[1] = cited from earlier work
[2] = cited from earlier work; remark: listed apart in the source
UGT1A3 [3] = target: T1, UGT1A3 (Homo sapiens, UniProt P35503); conditions: pH 7.4
T1 sequence (P35503 29-534): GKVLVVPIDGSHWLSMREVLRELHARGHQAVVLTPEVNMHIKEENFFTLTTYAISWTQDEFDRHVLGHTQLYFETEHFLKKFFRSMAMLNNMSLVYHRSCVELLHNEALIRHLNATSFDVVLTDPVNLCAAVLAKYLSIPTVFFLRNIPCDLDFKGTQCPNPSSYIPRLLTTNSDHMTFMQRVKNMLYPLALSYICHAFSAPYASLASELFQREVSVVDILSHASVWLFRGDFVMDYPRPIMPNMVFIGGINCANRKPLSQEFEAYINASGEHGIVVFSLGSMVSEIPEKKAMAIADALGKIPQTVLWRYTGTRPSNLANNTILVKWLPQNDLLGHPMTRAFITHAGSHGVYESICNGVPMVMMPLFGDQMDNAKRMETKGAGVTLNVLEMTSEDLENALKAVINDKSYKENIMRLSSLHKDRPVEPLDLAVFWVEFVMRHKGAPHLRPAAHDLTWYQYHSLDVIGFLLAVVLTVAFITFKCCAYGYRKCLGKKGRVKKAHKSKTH

UGT1A9 [4] = target: T2, UGT1A9 (Homo sapiens, UniProt O60656); conditions: pH 7.4
T2 sequence (O60656 26-530): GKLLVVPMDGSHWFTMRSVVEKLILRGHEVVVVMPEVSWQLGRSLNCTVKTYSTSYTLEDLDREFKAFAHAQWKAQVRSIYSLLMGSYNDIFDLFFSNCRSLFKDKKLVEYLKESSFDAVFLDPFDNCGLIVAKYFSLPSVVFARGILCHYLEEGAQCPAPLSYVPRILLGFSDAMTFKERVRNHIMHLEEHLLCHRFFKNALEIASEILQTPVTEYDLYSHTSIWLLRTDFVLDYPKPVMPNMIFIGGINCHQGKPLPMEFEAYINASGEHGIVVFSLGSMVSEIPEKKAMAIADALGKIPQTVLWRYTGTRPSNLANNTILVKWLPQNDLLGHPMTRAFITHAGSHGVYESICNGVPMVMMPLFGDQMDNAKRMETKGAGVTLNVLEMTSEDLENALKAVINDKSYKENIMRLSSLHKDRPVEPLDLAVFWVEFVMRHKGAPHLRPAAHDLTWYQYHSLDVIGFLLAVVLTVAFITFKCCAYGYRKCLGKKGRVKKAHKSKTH

UGT1A1 [5] = target: T3, UGT1A1 (Homo sapiens, UniProt P22309); conditions: pH 7.4
T3 sequence (P22309 26-533): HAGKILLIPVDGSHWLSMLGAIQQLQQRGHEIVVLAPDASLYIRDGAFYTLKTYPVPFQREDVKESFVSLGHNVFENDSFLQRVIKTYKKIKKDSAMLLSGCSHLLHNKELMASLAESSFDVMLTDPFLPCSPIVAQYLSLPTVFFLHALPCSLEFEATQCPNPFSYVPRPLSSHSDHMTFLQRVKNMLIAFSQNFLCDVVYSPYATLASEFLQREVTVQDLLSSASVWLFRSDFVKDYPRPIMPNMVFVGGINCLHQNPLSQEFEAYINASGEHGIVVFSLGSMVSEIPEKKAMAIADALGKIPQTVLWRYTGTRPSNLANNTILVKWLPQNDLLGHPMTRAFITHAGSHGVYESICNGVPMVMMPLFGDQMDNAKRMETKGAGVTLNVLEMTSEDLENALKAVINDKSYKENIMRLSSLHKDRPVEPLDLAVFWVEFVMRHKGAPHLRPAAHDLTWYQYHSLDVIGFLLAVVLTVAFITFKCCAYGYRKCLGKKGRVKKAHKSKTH

[6] = test system: UGT 1A1, 1A3, 1A6, 1A7, 1A8, 1A9, 1A10 and 2B7; conditions: human, 10 μM, pH 7.4
UGT1A9 [7] = target: T2, UGT1A9; experiment: Glucuronidation by recombinant human UGT1A9
UGT1A3 [8] = target: T1, UGT1A3; experiment: Glucuronidation by recombinant human UGT1A3
UGT1A6 = target: T4, UGT1A6 (Homo sapiens, UniProt P19224); experiment: Glucuronidation by recombinant human UGT1A6; conditions: UGT1A6, substrate 10 μM
T4 sequence (P19224 27-532): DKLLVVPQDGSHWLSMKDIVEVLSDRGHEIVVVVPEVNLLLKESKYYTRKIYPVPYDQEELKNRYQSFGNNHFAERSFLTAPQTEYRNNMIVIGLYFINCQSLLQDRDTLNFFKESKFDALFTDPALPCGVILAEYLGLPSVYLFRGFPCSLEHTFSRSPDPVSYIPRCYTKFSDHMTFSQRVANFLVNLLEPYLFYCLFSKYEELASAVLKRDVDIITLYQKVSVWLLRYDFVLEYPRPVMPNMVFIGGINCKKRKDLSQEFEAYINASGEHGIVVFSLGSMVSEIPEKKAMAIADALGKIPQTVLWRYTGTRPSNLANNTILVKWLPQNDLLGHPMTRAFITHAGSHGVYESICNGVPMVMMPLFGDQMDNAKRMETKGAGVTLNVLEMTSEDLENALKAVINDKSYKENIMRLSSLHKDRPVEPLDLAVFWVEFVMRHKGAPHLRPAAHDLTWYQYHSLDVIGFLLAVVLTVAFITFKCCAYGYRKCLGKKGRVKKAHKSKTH

UGT2B7 = target: T5, UGT2B7 (Homo sapiens, UniProt P16662); experiment: Glucuronidation by recombinant human UGT2B7; conditions: UGT2B7, substrate 10 μM
T5 sequence (P16662 24-529): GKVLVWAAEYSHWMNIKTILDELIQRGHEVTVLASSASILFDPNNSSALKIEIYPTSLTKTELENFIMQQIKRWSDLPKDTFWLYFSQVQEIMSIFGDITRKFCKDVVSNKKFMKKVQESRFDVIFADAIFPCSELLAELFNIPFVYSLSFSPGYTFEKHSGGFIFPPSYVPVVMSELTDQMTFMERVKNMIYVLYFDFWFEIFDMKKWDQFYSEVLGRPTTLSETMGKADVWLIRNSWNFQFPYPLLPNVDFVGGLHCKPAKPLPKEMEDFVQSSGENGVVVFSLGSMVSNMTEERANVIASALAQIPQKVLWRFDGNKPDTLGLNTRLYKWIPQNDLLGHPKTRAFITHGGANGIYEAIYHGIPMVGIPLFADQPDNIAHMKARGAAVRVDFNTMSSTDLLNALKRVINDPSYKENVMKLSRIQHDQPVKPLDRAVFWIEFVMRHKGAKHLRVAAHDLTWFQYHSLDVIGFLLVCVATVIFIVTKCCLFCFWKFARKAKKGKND

UGT1A1 [9] = target: T3, UGT1A1; experiment: Glucuronidation by recombinant human UGT1A1
UGT1A10 = target: T6, UGT1A10 (Homo sapiens, UniProt Q9HAW8); experiment: Glucuronidation by recombinant human UGT1A10; conditions: UGT1A10, substrate 10 μM
T6 sequence (Q9HAW8 26-530): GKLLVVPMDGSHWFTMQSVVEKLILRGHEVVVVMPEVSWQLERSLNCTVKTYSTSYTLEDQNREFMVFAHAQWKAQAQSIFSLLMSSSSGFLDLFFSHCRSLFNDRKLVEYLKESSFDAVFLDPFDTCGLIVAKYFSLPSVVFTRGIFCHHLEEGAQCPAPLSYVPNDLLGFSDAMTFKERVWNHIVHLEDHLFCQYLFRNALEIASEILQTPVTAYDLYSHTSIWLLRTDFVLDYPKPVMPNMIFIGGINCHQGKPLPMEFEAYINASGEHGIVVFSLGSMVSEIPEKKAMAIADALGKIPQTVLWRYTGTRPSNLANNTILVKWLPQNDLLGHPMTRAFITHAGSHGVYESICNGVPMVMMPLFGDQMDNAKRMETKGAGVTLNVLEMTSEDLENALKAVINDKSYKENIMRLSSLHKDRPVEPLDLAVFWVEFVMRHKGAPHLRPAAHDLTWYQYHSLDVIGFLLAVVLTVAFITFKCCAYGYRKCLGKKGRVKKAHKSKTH

[10] = bioavailability studies in humans; cited from earlier work
UGT1A9 [11] = target: T2, UGT1A9; conditions: cited from earlier work

Structure (SMILES): O=c1c(-c2ccc(O)cc2)coc2cc(O)cc(O)c12 [genistein]
- Cmax of 7-O-glucuronide relative to 4’-O-glucuronide ([1]; intravenous administration of genistein): four times higher
- Cmax of 7-O-G relative to 4’-O-glucuronide ([1]; per-oral administration of genistein): 1.85 times

Structure (SMILES): O=C(O)[C@H]1O[C@@H](Oc2cc(O)c3c(=O)c(O)c(-c4ccc(O)c(O)c4)oc3c2)[C@H](O)[C@@H](O)[C@@H]1O [quercetin,7-O-G]
- Antioxidative property [2]: stronger antioxidative property than quercetin,3-O-G

Structure (SMILES): O=c1cc(-c2ccc(O)cc2)oc2cc(O)cc(O)c12 [5,7,4'THF, 5,7,4’-trihydroxyflavone]
- Degree of regiospecificity (major glucuronide in bracket) (UGT1A3 [3]; 2.5 μM): Dominant (7-O)
- Degree of regiospecificity (major glucuronide in bracket) (UGT1A3 [3]; 10 μM): Dominant (7-O)
- Degree of regiospecificity (major glucuronide in bracket) (UGT1A9 [4]; 2.5 μM): Dominant (7-O)
- Degree of regiospecificity (major glucuronide in bracket) (UGT1A9 [4]; 10 μM): Dominant (7-O)
- Degree of regiospecificity (major glucuronide in bracket) (UGT1A1 [5]; 2.5 μM): Dominant (7-O)
- Degree of regiospecificity (major glucuronide in bracket) (UGT1A1 [5]; 10 μM): Dominant (7-O)
- Glucuronidation and regiospecificity across the 8 UGT isoforms [6]: all isoforms showed dominant regiospecific glucuronidation of hydroxyl group at C-7 position only

Structure (SMILES): O=c1c(O)c(-c2ccc(O)cc2)oc2cc(O)ccc12 [7,4'DHFnol, 3,7,4’-trihydroxyflavone]
- Degree of regiospecificity (major glucuronide in bracket) (UGT1A9 [7]; UGT1A9, substrate 2.5 μM): Moderate (3-O)
- Degree of regiospecificity (major glucuronide in bracket) (UGT1A9 [7]; UGT1A9, substrate 10 μM): Moderate (3-O)
- Hydroxyl positions glucuronidated (UGT1A9 [7]; UGT1A9, substrate 10 μM): glucuronidated hydroxyl groups at C-3 and C-7 positions only
- Degree of regiospecificity (major glucuronide in bracket) (UGT1A9 [7]; UGT1A9, substrate 10 μM, listed as 7,4’DHFnol): moderate
- Degree of regiospecificity (major glucuronide in bracket) (UGT1A3 [8]; UGT1A3, substrate 2.5 μM): Dominant (7-O)
- Degree of regiospecificity (major glucuronide in bracket) (UGT1A3 [8]; UGT1A3, substrate 10 μM): Weak (7-O)
- Hydroxyl positions glucuronidated (UGT1A3 [8]; UGT1A3, substrate 10 μM): glucuronidated hydroxyl groups at C-3 and C-7 positions only
- Degree of regiospecificity (major glucuronide in bracket) (UGT1A3 [8]; UGT1A3, substrate 10 μM, listed as 7,4’DHFnol): weak regiospecific preference for 7-O over 3-O position
- Hydroxyl positions glucuronidated (UGT1A6): no position was glucuronidated
- Hydroxyl positions glucuronidated (UGT2B7): glucuronidated all the three hydroxyl groups
- Degree of regiospecificity (major glucuronide in bracket) (UGT1A1 [9]; UGT1A1, substrate 2.5 μM): No (3-O, 7-O)
- Degree of regiospecificity (major glucuronide in bracket) (UGT1A1 [9]; UGT1A1, substrate 10 μM): No (3-O, 7-O)
- Hydroxyl positions glucuronidated (UGT1A1 [9]; UGT1A1, substrate 10 μM): glucuronidated all the three hydroxyl groups
- Degree of regiospecificity (major glucuronide in bracket) (UGT1A1 [9]; UGT1A1, substrate 10 μM, listed as 7,4’DHFnol): no regiospecific preference for any position
- Hydroxyl positions glucuronidated (UGT1A10): glucuronidated all the three hydroxyl groups

Structure (SMILES): O=c1c(O)c(-c2ccc(O)c(O)c2)oc2cc(O)cc(O)c12 [quercetin, 3,5,7,3’-4’-pentahydroxyflavone]
- Main glucuronide found [10]: 3-O-glucuronide of quercetin was also the main glucuronide
- Catalytic efficiency order for regiospecific glucuronidation (UGT1A9 [11]): 3- > 7- > 3′- > 4′-O-glucuronide
